In one assay the target is BRD9 bromodomain (Homo sapiens (Human), UniProt Q9H8M2). The assay is described as follows: BRD9 bromodomain TR-FRET competition binding assay. The following applies: Table 4; competition with biotinylated ligand, 3 nM Flag-BRD9, 90 minutes. Put shortly: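 TEV-cleaved Flag-BRD9 (P133-K239, 3 nM) competed against 3.75 nM biotinylated ligand, with 7.5 nM APC-streptavidin and 0.2 nM Eu-W1024 anti-FLAG, in HEPES pH 7.4, NaCl, TCEP, Tween-20, BSA. Compounds were serially diluted 3-fold; after 90 min at room temperature the 665/615 nm emission ratio was read.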
(In general: TR-FRET usually uses a lanthanide donor and a delayed reading to cut background.)

Assay [1] has as its target Nanoluciferase-BRD9 fusion protein (Homo sapiens (Human), UniProt Q9H8M2). Description: SYO1 BRD9 NanoLuc degradation assay. The assay is classed as cell-based. The following applies: Table 5A, SYO-1 cells expressing 3×FLAG-NLuc-BRD9, 6 hours; for DC50: read-out: SYO1 BRD9-NanoLuc degradation IC50. A digest of the protocol: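 Degradation was read as loss of nanoluciferase signal (Nano-Glo) after 6 h compound exposure in a stable SYO-1 line carrying 3×FLAG-NLuc-BRD9 (8000 cells/well). Normalised between DMSO (high) and a 1 μM known BRD9 degrader (low).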

BRD9 bromodomain, sequence (Q9H8M2 133-239): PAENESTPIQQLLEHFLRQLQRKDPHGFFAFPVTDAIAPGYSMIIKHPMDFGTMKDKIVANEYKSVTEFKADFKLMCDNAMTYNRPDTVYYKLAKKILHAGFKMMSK
Nanoluciferase-BRD9 fusion protein, sequence (Q9H8M2 whole entry, the tested form may be a part): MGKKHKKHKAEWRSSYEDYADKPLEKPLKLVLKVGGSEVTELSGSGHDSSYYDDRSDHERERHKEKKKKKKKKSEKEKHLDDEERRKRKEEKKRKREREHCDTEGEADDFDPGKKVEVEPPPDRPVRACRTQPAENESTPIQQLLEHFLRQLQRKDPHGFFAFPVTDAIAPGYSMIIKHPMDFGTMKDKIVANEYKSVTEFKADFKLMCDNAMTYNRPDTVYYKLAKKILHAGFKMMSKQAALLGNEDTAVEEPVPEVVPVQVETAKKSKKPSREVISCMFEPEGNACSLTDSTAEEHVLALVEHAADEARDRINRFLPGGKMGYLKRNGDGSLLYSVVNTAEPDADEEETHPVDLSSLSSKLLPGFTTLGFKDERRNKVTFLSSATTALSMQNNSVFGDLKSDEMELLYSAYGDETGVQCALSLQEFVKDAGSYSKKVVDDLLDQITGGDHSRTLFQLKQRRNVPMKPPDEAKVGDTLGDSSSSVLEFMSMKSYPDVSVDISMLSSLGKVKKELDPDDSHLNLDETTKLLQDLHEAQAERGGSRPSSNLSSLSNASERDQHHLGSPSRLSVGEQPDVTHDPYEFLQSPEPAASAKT

Take `COc1cc(-c2cn(C)c(=O)c3cnccc23)cc(OC)c1CN(C)C(=O)CCCCN1CCOC2(CCN(c3ccc4c(c3)C(=O)N(C3CCC(=O)NC3=O)C4=O)CC2)C1` (centres unmarked) [Compound D72, N-[[2,6-dimethoxy-4-(2-methyl-1-oxo-2,7-naphthyridin-4-yl)phenyl]methyl]-5-[9-[2-(2,6-dioxopiperidin-3-yl)-1,3-dioxoisoindol-5-yl]-1-oxa-4,9-diazaspiro[5.5]undecan-4-yl]-N-methylpentanamide formic acid]: the IC50 (at BRD9 bromodomain; in assay [1]) was under 10 nM each time.

Turning to `COc1cc(-c2cn(C)c(=O)c3cnccc23)cc(OC)c1CN(C)CC(=O)NCCCCN1CCOC2(CCN(c3ccc4c(c3)C(=O)N(C3CCC(=O)NC3=O)C4=O)CC2)C1` (centres unmarked) [Compound D73, 2-([[2,6-dimethoxy-4-(2-methyl-1-oxo-2,7-naphthyridin-4-yl)phenyl]methyl](methyl)amino)-N-(4-[9-[2-(2,6-dioxopiperidin-3-yl)-1,3-dioxoisoindol-5-yl]-1-oxa-4,9-diazaspiro[5.5]undecan-4-yl]butyl)acetamide formic acid], the IC50 is 10 to 100 nM at BRD9 bromodomain and under 10 nM in assay [1].

At BRD9 bromodomain, `COc1cc(-c2cn(C)c(=O)c3cnccc23)cc(OC)c1CNCCOCC(=O)N1CC(COc2ccc3c(c2)C(=O)N(C2CCC(=O)NC2=O)C3=O)C1` (centres unmarked) [Compound D74, 5-[(1-[2-[2-([[2,6-dimethoxy-4-(2-methyl-1-oxo-2,7-naphthyridin-4-yl)phenyl]methyl]amino)ethoxy]acetyl]azetidin-3-yl)methoxy]-2-(2,6-dioxopiperidin-3-yl)isoindole-1,3-dione formic acid] registered an IC50 of under 10 nM. In addition, the DC50 in assay [1] is 100 to 1000 nM.

On to `COc1cc(-c2cn(C)c(=O)c3cnccc23)cc(OC)c1CN1CC2(CCC2NC(=O)CCOCCOc2cccc3c2C(=O)N(C2CCC(=O)NC2=O)C3=O)C1` (centres unmarked) [Compound D84], for which the IC50 was 10 to 100 nM at BRD9 bromodomain and over 1000 nM in assay [1].

On to `COc1cc(-c2cn(C)c(=O)c3cnccc23)cc(OC)c1CN1CC2(CCN(C(=O)CCOCCOc3cccc4c3C(=O)N(C3CCC(=O)NC3=O)C4=O)CC2)C1` (centres unmarked) [Compound D85], for which the IC50 on BRD9 bromodomain fell in the range of 10 to 100 nM; in assay [1] it was 100 to 1000 nM.

In the case of `COc1cc(-c2cn(C)c(=O)c3cnccc23)cc(OC)c1CN1CCC12CN(C(=O)CCOCCOc1cccc3c1C(=O)N(C1CCC(=O)NC1=O)C3=O)C2` (centres unmarked) [Compound D86], the IC50 on BRD9 bromodomain lay within 10 to 100 nM; in assay [1], 100 to 1000 nM.

As for `COc1cc(-c2cn(C)c(=O)c3cnccc23)cc(OC)c1CN1CCC2(C1)CN(C(=O)CCOCCOc1cccc3c1C(=O)N(C1CCC(=O)NC1=O)C3=O)C2` (centres unmarked) [Compound D87], the IC50 at BRD9 bromodomain is under 10 nM. Also, in assay [1], the DC50 was in the range of 10 to 100 nM.

`COc1cc(-c2cn(C)c(=O)c3cnccc23)cc(OC)c1CN1CCC2(CC1)CN(C(=O)CCOCCOc1cccc3c1C(=O)N(C1CCC(=O)NC1=O)C3=O)C2` (centres unmarked) [Compound D88] registered an IC50 at BRD9 bromodomain of under 10 nM. In addition, the DC50 in assay [1] fell in the range of 10 to 100 nM.

Take `COc1cc(-c2cn(C)c(=O)c3cnccc23)cc(OC)c1CN1CCC2(CCN(C(=O)CCOCCOc3cccc4c3C(=O)N(C3CCC(=O)NC3=O)C4=O)CC2)C1` (centres unmarked) [Compound D89]: the IC50 (at BRD9 bromodomain; in assay [1]) was under 10 nM throughout.

On to `COc1cc(-c2cn(C)c(=O)c3cnccc23)cc(OC)c1CN1CCC2CCN(C(=O)CCOCCOc3cccc4c3C(=O)N(C3CCC(=O)NC3=O)C4=O)CC21` (centres unmarked) [Compound D91], for which the IC50 (on BRD9 bromodomain; in assay [1]) was 10 to 100 nM each time.

`COc1cc(-c2cn(C)c(=O)c3cnccc23)cc(OC)c1CN1CC2(CC(NC(=O)CCOCCOc3cccc4c3C(=O)N(C3CCC(=O)NC3=O)C4=O)C2)C1` (centres unmarked) [Compound D93]: the IC50 on BRD9 bromodomain was under 10 nM. Besides, the DC50 in assay [1] was 10 to 100 nM.

`COc1cc(-c2cn(C)c(=O)c3cnccc23)cc(OC)c1CN1CCC12CCN(C(=O)CCOCCOc1cccc3c1C(=O)N(C1CCC(=O)NC1=O)C3=O)C2` (centres unmarked) [Compound D95]: the IC50 on BRD9 bromodomain was 10 to 100 nM; in assay [1], 100 to 1000 nM.

`COc1cc(-c2cn(C)c(=O)c3cnccc23)cc(OC)c1CN1CCC(C2CCN(C(=O)CCOCCOc3cccc4c3C(=O)N(C3CCC(=O)NC3=O)C4=O)C2)CC1` (centres unmarked) [Compound D96]: the IC50 at BRD9 bromodomain was under 10 nM. In addition, the DC50 in assay [1] is 10 to 100 nM.

On BRD9 bromodomain, `COc1cc(-c2cn(C)c(=O)c3cnccc23)cc(OC)c1CN1CCC(OC2CCN(C(=O)CCOCCOc3cccc4c3C(=O)N(C3CCC(=O)NC3=O)C4=O)CC2)CC1` (centres unmarked) [Compound D97] came in with an IC50 of under 10 nM. The DC50 in assay [1] was 10 to 100 nM.

Consider `COc1cc(-c2cn(C)c(=O)c3cnccc23)cc(OC)c1CN1CCC12CN(C(=O)CCOCCOc1ccc3c(c1)C(=O)N(C1CCC(=O)NC1=O)C3=O)C2` (centres unmarked) [Compound D98], for which the IC50 (on BRD9 bromodomain; in assay [1]) was 100 to 1000 nM throughout.

Regarding `COc1cc(-c2cn(C)c(=O)c3cnccc23)cc(OC)c1CN1CCC2(C1)CN(C(=O)CCOCCOc1ccc3c(c1)C(=O)N(C1CCC(=O)NC1=O)C3=O)C2` (centres unmarked) [Compound D99], the IC50 (on BRD9 bromodomain; in assay [1]) was 10 to 100 nM in each case.

With `COc1cc(-c2cn(C)c(=O)c3cnccc23)cc(OC)c1CN1CC2CN(C(=O)CCOCCOc3ccc4c(c3)C(=O)N(C3CCC(=O)NC3=O)C4=O)CCC21` (centres unmarked) [Compound D100], the IC50 (on BRD9 bromodomain; in assay [1]) was under 10 nM in each case.

Consider `COc1cc(-c2cn(C)c(=O)c3cnccc23)cc(OC)c1CN1CC2(CC(NC(=O)CCOCCOc3ccc4c(c3)C(=O)N(C3CCC(=O)NC3=O)C4=O)C2)C1` (centres unmarked) [Compound D101], for which, on BRD9 bromodomain, the IC50 was under 10 nM. The DC50 in assay [1] was in the range of 100 to 1000 nM.

`COc1cc(-c2cn(C)c(=O)c3cnccc23)cc(OC)c1CN1CCC2(CCN(C(=O)CCOCCOc3cccc4c3C(=O)N(C3CCC(=O)NC3=O)C4=O)C2)C1` (centres unmarked) [Compound D108]: the IC50 (at BRD9 bromodomain; in assay [1]) was under 10 nM in each case.

As for `COc1cc(-c2cn(C)c(=O)c3cnccc23)cc(OC)c1CN(C)CC1CC2(CCN(C(=O)CCOCCOc3cccc4c3C(=O)N(C3CCC(=O)NC3=O)C4=O)CC2)CO1` (centres unmarked) [Compound D109], the IC50 at BRD9 bromodomain is under 10 nM. Besides, the DC50 in assay [1] lay within 10 to 100 nM.

Consider `COc1cc(-c2cn(C)c(=O)c3cnccc23)cc(OC)c1CN(C)C1CCC12CCN(C(=O)CCOCCOc1cccc3c1C(=O)N(C1CCC(=O)NC1=O)C3=O)CC2` (centres unmarked) [Compound D110], for which the IC50 (at BRD9 bromodomain; in assay [1]) was 10 to 100 nM throughout.

In the case of `COc1cc(-c2cn(C)c(=O)c3cnccc23)cc(OC)c1CN1CCC2(C[C@H]2NC(=O)CCOCCOc2cccc3c2C(=O)N(C2CCC(=O)NC2=O)C3=O)C1` (some centres unmarked) [Compound D111], the IC50 on BRD9 bromodomain was under 10 nM. Moreover, the DC50 in assay [1] was in the range of 10 to 100 nM.

Regarding `COc1cc(-c2cn(C)c(=O)c3cnccc23)cc(OC)c1CN1CCC2(C[C@@H]2NC(=O)CCOCCOc2cccc3c2C(=O)N(C2CCC(=O)NC2=O)C3=O)C1` (some centres unmarked) [Compound D112], the IC50 at BRD9 bromodomain was under 10 nM. Besides, the DC50 in assay [1] lay within 100 to 1000 nM.

With `COc1cc(-c2cn(C)c(=O)c3cnccc23)cc(OC)c1CN1CC2C1CCN2C(=O)CCOCCOc1cccc2c1C(=O)N(C1CCC(=O)NC1=O)C2=O` (centres unmarked) [Compound D113], the IC50 (on BRD9 bromodomain; in assay [1]) was under 10 nM in each case.

Take `COc1cc(-c2cn(C)c(=O)c3cnccc23)cc(OC)c1CN1CCC(OC2CCN(C(=O)CCOCCOc3cccc4c3C(=O)N(C3CCC(=O)NC3=O)C4=O)C2)CC1` (centres unmarked) [Compound D114]: the IC50 on BRD9 bromodomain is under 10 nM. Moreover, the DC50 in assay [1] lay in the range of 10 to 100 nM.

For the compound `COc1cc(-c2cn(C)c(=O)c3cnccc23)cc(OC)c1CN1CC2(CCC2NC(=O)CCOCCOc2ccc3c(c2)C(=O)N(C2CCC(=O)NC2=O)C3=O)C1` (centres unmarked) [Compound D115], the figures for the IC50 (at BRD9 bromodomain; in assay [1]) were 10 to 100 nM and 100 to 1000 nM, respectively.

On BRD9 bromodomain, `COc1cc(-c2cn(C)c(=O)c3cnccc23)cc(OC)c1CN1CCC2(CC1)CC(NC(=O)CCOCCOc1ccc3c(c1)C(=O)N(C1CCC(=O)NC1=O)C3=O)C2` (centres unmarked) [Compound D116] displayed an IC50 of under 10 nM. The DC50 in assay [1] lay within 10 to 100 nM.

In turn, `COc1cc(-c2cn(C)c(=O)c3cnccc23)cc(OC)c1CN1CC(CCNC(=O)CCOCCOc2ccc3c(c2)C(=O)N(C2CCC(=O)NC2=O)C3=O)C1` (centres unmarked) [Compound D117] registered an IC50 on BRD9 bromodomain of under 10 nM. In addition, in assay [1], the DC50 fell in the range of 100 to 1000 nM.

On BRD9 bromodomain, `COc1cc(-c2cn(C)c(=O)c3cnccc23)cc(OC)c1CN1CC2(CCN(C(=O)CCOCCOc3ccc4c(c3)C(=O)N(C3CCC(=O)NC3=O)C4=O)CC2)C1` (centres unmarked) [Compound D118] showed an IC50 of under 10 nM. In assay [1], the DC50 was in the range of 10 to 100 nM.

In turn, `COc1cc(-c2cn(C)c(=O)c3cnccc23)cc(OC)c1CN1CCC2(CC1)CN(C(=O)CCOCCOc1ccc3c(c1)C(=O)N(C1CCC(=O)NC1=O)C3=O)C2` (centres unmarked) [Compound D119] registered an IC50 at BRD9 bromodomain of under 10 nM. Also, the DC50 in assay [1] is 10 to 100 nM.

As for `COc1cc(-c2cn(C)c(=O)c3cnccc23)cc(OC)c1CN1CCC2(CCN(C(=O)CCOCCOc3ccc4c(c3)C(=O)N(C3CCC(=O)NC3=O)C4=O)CC2)C1` (centres unmarked) [Compound D120], the IC50 (at BRD9 bromodomain; in assay [1]) was 10 to 100 nM in each case.

For `COc1cc(-c2cn(C)c(=O)c3cnccc23)cc(OC)c1CN1CCC2(CCN(C(=O)CCOCCOc3ccc4c(c3)C(=O)N(C3CCC(=O)NC3=O)C4=O)C2)C1` (centres unmarked) [Compound D121], the IC50 (at BRD9 bromodomain; in assay [1]) was 10 to 100 nM in each case.

In the case of `COc1cc(-c2cn(C)c(=O)c3cnccc23)cc(OC)c1CN1CC2(CCN(C(=O)CCOCCOc3ccc4c(c3)C(=O)N(C3CCC(=O)NC3=O)C4=O)C2)C1` (centres unmarked) [Compound D122], the IC50 (at BRD9 bromodomain; in assay [1]) was under 10 nM each time.

Consider `COc1cc(-c2cn(C)c(=O)c3cnccc23)cc(OC)c1CN1CCC2CCN(C(=O)CCOCCOc3ccc4c(c3)C(=O)N(C3CCC(=O)NC3=O)C4=O)CC21` (centres unmarked) [Compound D123], for which the IC50 (at BRD9 bromodomain; in assay [1]) was under 10 nM each time.

A word on the IC50: it is the midpoint of a concentration-inhibition curve.
